{"source": "patent US20220175781A1", "about": "“CD40L COMPOSITIONS AND METHODS FOR TUNABLE REGULATION” (Obsidian Therapeutics, Inc., priority 2019, published 2022)", "molecules": {"B1": {"name": "OT-001671: ecDHFR regulated construct that includes a CD40L protein resistant to cleavage (protein)", "chain": "MSGISLIAALAVDYVIGMENAMPWNLPADLAWFKRNTLNKPVIMGRHTWESIGRPLPGRKNIILSSQPGTDDRVTWVKSVDEAIAACGDVPEIMVIGGGRVIEQFLPKAQKLYLTHIDAEVEGDTHFPDYEPDDWESVFSEFHDADAQNSHSYCFEILERRHMIETYNQTSPRSAATGLPISMKIFMYLLTVFLITQMIGSALFAVYLHRRLDKIEDERNLHEDFVFMKTIQRCNTGERSLSLLNCEEIKSQFEGFVKDIMLNKEETKKENDQNPQIAAHVISEASSKTTSVLQWAEKGYYTMSNNLVTLENGKQLTVKRQGLYYIYAQVTFCSNREASSQAPFIASLCLKSPGRFERILLRAANTHSSAKPCGQQSIHLGGVFELQPGASVFVNVTDPSQVSHGTGFTSFGLLKL"}}, "key": {"T cells": {"system": "T cells", "test": "Dose response of TMP, Bazedoxifene or Raloxifene, % CD40L positive T cells", "format": "cell-based", "details": "T cells expressing OT-001666", "experimental": "T cells were transduced with OT-001662 or OT-001666. On day 4, cells were treated with increasing doses of TMP for T cells expressing OT-001662. Cells expressing OT-001666 were treated either with increasing concentrations of Bazedoxifene or Raloxifene. The data are shown in Table 30 as the percentage of CD40L positive T cells."}, "[1]": {"system": "T cells (CD4+ and CD8+ subsets)", "test": "Vardenafil dose response of CD40L surface expression in T cells, CD4+ and CD8+ subsets", "format": "cell-based", "set-up": "key to SR: ratio of CD40L expression with vardenafil to expression without it", "details": "OT-001892 transduced T cells", "experimental": "T cells were transduced with 10 μL of lentivirus corresponding to OT-001892. 4 days after transduction, cells were treated with increasing concentrations of ligand (Vardenafil) or vehicle control for 24 hours. Surface expression of CD40L in T cells as well as the CD4+ and CD8+ subsets was analyzed by FACS. The stabilization ratio (SR) may be defined as the ratio of expression, CD40L in response to vardenafil to the expression of CD40L in the absence of vardenafil."}, "CD40": {"target": "CD40 (UniProt P25942)", "sequence (P25942 21-277 limits assumed)": "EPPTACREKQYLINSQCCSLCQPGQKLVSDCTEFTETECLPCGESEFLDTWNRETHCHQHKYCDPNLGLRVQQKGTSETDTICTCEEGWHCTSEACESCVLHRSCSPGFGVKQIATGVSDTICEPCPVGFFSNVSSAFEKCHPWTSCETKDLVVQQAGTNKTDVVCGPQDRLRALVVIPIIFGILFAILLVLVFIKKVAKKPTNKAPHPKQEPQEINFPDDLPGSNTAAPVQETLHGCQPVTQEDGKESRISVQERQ", "test": "cell-based or functional assay"}, "[2]": {"system": "T cells (CD4 and CD8 positive)", "test": "Bazedoxifene dose response, CD40L MFI in CD4 and CD8 positive T cells (day 4, freeze/thaw, restimulation)", "format": "cell-based", "details": "T cells, Bazedoxifene dose response", "experimental": "Dose response with Bazedoxifene in T cells were conducted for OT-001966, OT-001967, OT-001666. Expression of CD40L was measured at (a) day 4 after transduction, (b) after freezing and thawing the cells or (c) after freezing and thawing the cells followed by restimulation with CD3/CD28 beads. The CD40L MFI (median fluorescence intensity) within CD4 and CD8 positive subpopulations is shown in Table 34 and Table 35 respectively."}, "T cells (CD4 and CD8)": {"system": "T cells (CD4 and CD8)", "test": "Cleavage resistant CD40L expression and TMP regulation in T cells", "format": "cell-based", "details": "T cells, 10 μM TMP 24 hours, CD4 and CD8 populations", "experimental": "T cells were transduced with OT-001668 and on day 4, the percentage of CD40L expressing T cells (within the both CD4 and CD8) subpopulations was calculated.\nT cells were transduced with ecDHFR regulated construct OT-001671 that include a CD40L protein that was resistant to cleavage. On day 4 cells were treated with 10 μM TMP for 24 hours. […] In an independent experiment, T cells transduced with varying volumes of virus corresponding to OT-001671 were treated with increasing doses of TMP for 24 hours. In Table 41, 0.5 μL, 2 μL, and 10 μL indicate the different volumes of virus that were used."}, "[3]": {"details": "All Cells, Vardenafil 0.0001 μM"}, "[4]": {"details": "CD4+ Cells, Vardenafil 0.0001 μM"}, "[5]": {"details": "CD4+ Cells, Vardenafil 0.001 μM"}, "[6]": {"details": "CD8+ Cells, Vardenafil 0.0001 μM"}, "[7]": {"details": "CD8+ Cells, Vardenafil 0.001 μM"}}}
{"molecule": "Cc1c(-c2ccc(O)cc2)n(Cc2ccc(OCCN3CCCCCC3)cc2)c2ccc(O)cc12", "note": "[Bazidoxefene]", "values": [{"measurement": "Percent of cells expressing CD40L", "setting": "T cells; Dose 0.0001 μM", "value": 4.88, "unit": "%"}, {"measurement": "Percent of cells expressing CD40L", "setting": "T cells; Dose 0.001 μM", "value": 5.17, "unit": "%"}, {"measurement": "Percent of cells expressing CD40L", "setting": "T cells; Dose 0.01 μM", "value": 5.42, "unit": "%"}, {"measurement": "Percent of cells expressing CD40L", "setting": "T cells; Dose 0.1 μM", "value": 7.67, "unit": "%"}, {"measurement": "Percent of cells expressing CD40L", "setting": "T cells; Dose 1 μM", "value": 13.5, "unit": "%"}]}
{"molecule": "CCCc1nc(C)c2c(=O)[nH]c(-c3cc(S(=O)(=O)N4CCN(CC)CC4)ccc3OCC)nn12", "note": "[Vardenafil]", "values": [{"measurement": "MFI", "setting": "[1]; [3]", "value": 274}, {"measurement": "SR", "setting": "[1]; [3]", "value": 1.31}, {"measurement": "MFI", "setting": "[1]; All Cells, Vardenafil 0.001 μM", "value": 260}, {"measurement": "SR", "setting": "[1]; All Cells, Vardenafil 0.001 μM", "value": 1.24}, {"measurement": "MFI", "setting": "[1]; All Cells, Vardenafil 0.01 μM", "value": 265}, {"measurement": "SR", "setting": "[1]; All Cells, Vardenafil 0.01 μM", "value": 1.27}, {"measurement": "MFI", "setting": "[1]; All Cells, Vardenafil 0.1 μM", "value": 311}, {"measurement": "SR", "setting": "[1]; All Cells, Vardenafil 0.1 μM", "value": 1.49}, {"measurement": "MFI", "setting": "[1]; All Cells, Vardenafil 1 μM", "value": 405}, {"measurement": "SR", "setting": "[1]; All Cells, Vardenafil 1 μM", "value": 1.94}, {"measurement": "MFI", "setting": "[1]; All Cells, Vardenafil 10 μM", "value": 747}, {"measurement": "SR", "setting": "[1]; All Cells, Vardenafil 10 μM", "value": 3.57}, {"measurement": "MFI", "setting": "[1]; All Cells, Vardenafil 100 μM", "value": 1168}, {"measurement": "SR", "setting": "[1]; All Cells, Vardenafil 100 μM", "value": 5.59}, {"measurement": "MFI", "setting": "[1]; [4]", "value": 313}, {"measurement": "SR", "setting": "[1]; [4]", "value": 1.38}, {"measurement": "MFI", "setting": "[1]; [5]", "value": 291}, {"measurement": "SR", "setting": "[1]; [5]", "value": 1.28}, {"measurement": "MFI", "setting": "[1]; CD4+ Cells, Vardenafil 0.01 μM", "value": 304}, {"measurement": "SR", "setting": "[1]; CD4+ Cells, Vardenafil 0.01 μM", "value": 1.34}, {"measurement": "MFI", "setting": "[1]; CD4+ Cells, Vardenafil 0.1 μM", "value": 359}, {"measurement": "SR", "setting": "[1]; CD4+ Cells, Vardenafil 0.1 μM", "value": 1.58}, {"measurement": "MFI", "setting": "[1]; CD4+ Cells, Vardenafil 1 μM", "value": 482}, {"measurement": "SR", "setting": "[1]; CD4+ Cells, Vardenafil 1 μM", "value": 2.12}, {"measurement": "MFI", "setting": "[1]; CD4+ Cells, Vardenafil 10 μM", "value": 930}, {"measurement": "SR", "setting": "[1]; CD4+ Cells, Vardenafil 10 μM", "value": 4.10}, {"measurement": "MFI", "setting": "[1]; CD4+ Cells, Vardenafil 100 μM", "value": 1367}, {"measurement": "SR", "setting": "[1]; CD4+ Cells, Vardenafil 100 μM", "value": 6.02}, {"measurement": "MFI", "setting": "[1]; [6]", "value": 166}, {"measurement": "SR", "setting": "[1]; [6]", "value": 1.15}, {"measurement": "MFI", "setting": "[1]; [7]", "value": 166}, {"measurement": "SR", "setting": "[1]; [7]", "value": 1.15}, {"measurement": "MFI", "setting": "[1]; CD8+ Cells, Vardenafil 0.01 μM", "value": 162}, {"measurement": "SR", "setting": "[1]; CD8+ Cells, Vardenafil 0.01 μM", "value": 1.13}, {"measurement": "MFI", "setting": "[1]; CD8+ Cells, Vardenafil 0.1 μM", "value": 171}, {"measurement": "SR", "setting": "[1]; CD8+ Cells, Vardenafil 0.1 μM", "value": 1.19}, {"measurement": "MFI", "setting": "[1]; CD8+ Cells, Vardenafil 1 μM", "value": 186}, {"measurement": "SR", "setting": "[1]; CD8+ Cells, Vardenafil 1 μM", "value": 1.29}, {"measurement": "MFI", "setting": "[1]; CD8+ Cells, Vardenafil 10 μM", "value": 340}, {"measurement": "SR", "setting": "[1]; CD8+ Cells, Vardenafil 10 μM", "value": 2.36}, {"measurement": "MFI", "setting": "[1]; CD8+ Cells, Vardenafil 100 μM", "value": 620}, {"measurement": "SR", "setting": "[1]; CD8+ Cells, Vardenafil 100 μM", "value": 4.31}]}
{"molecule": "OT-001662 (Met; Linker (SG); ecDHFR (M1del, R12Y, Y100I); Histidine residue; CD40L; stop) (ligand)", "values": [{"measurement": "IFNg (pg/ml), 2-day co-culture of transduced T cells with mDC, DMSO (DRD not stabilised)", "setting": "CD40", "value": 3790, "unit": "pg/mL"}, {"measurement": "IFNg (pg/ml), 2-day co-culture of transduced T cells with mDC, TMP (0.1 µM)", "setting": "CD40", "value": 7430, "unit": "pg/mL"}, {"measurement": "IFNg (pg/ml), 2-day co-culture of transduced T cells with mDC, TMP (0.5 µM)", "setting": "CD40", "value": 3590, "unit": "pg/mL"}, {"measurement": "IFNg (pg/ml), 2-day co-culture of transduced T cells with mDC, TMP (2 µM)", "setting": "CD40", "value": 16400, "unit": "pg/mL"}, {"measurement": "IFNg (pg/ml), 2-day co-culture of transduced T cells with mDC, TMP (10 µM)", "setting": "CD40", "value": 13500, "unit": "pg/mL"}, {"measurement": "IL12 (pg/ml), 2-day co-culture of transduced T cells with mDC, DMSO (DRD not stabilised)", "setting": "CD40", "value": 0.254, "unit": "pg/mL"}, {"measurement": "IL12 (pg/ml), 2-day co-culture of transduced T cells with mDC, TMP (0.1 µM)", "setting": "CD40", "value": 0.0705, "unit": "pg/mL"}, {"measurement": "IL12 (pg/ml), 2-day co-culture of transduced T cells with mDC, TMP (2 µM)", "setting": "CD40", "value": 19.4, "unit": "pg/mL"}, {"measurement": "IL12 (pg/ml), 2-day co-culture of transduced T cells with mDC, TMP (10 µM)", "setting": "CD40", "value": 59.3, "unit": "pg/mL"}, {"measurement": "SEAP reporter of HEK-Blue CD40 cells co-cultured 24 hours with transduced Jurkat cells plus 50 µM TMP, given as Soluble CD40L (pg/ml) against a recombinant soluble CD40L standard", "setting": "CD40", "value": 8660, "unit": "pg/mL"}, {"measurement": "TNFa (pg/ml), 2-day co-culture of transduced T cells with mDC, DMSO (DRD not stabilised)", "setting": "CD40", "value": 82.3, "unit": "pg/mL"}, {"measurement": "TNFa (pg/ml), 2-day co-culture of transduced T cells with mDC, TMP (0.1 µM)", "setting": "CD40", "value": 131, "unit": "pg/mL"}, {"measurement": "TNFa (pg/ml), 2-day co-culture of transduced T cells with mDC, TMP (0.5 µM)", "setting": "CD40", "value": 83.9, "unit": "pg/mL"}, {"measurement": "TNFa (pg/ml), 2-day co-culture of transduced T cells with mDC, TMP (2 µM)", "setting": "CD40", "value": 249, "unit": "pg/mL"}, {"measurement": "TNFa (pg/ml), 2-day co-culture of transduced T cells with mDC, TMP (10 µM)", "setting": "CD40", "value": 251, "unit": "pg/mL"}]}
{"molecule": "Cc1c(-c2ccc(O)cc2)n(Cc2ccc(OCCN3CCCCCC3)cc2)c2ccc(O)cc12", "note": "[Bazedoxifene, reference compound]", "values": [{"measurement": "cell health", "setting": "[2]", "value": "affected cell health at highest dose"}]}
{"molecule": "O=C(c1ccc(OCCN2CCCCC2)cc1)c1c(-c2ccc(O)cc2)sc2cc(O)ccc12", "note": "[Raloxifene]", "values": [{"measurement": "Percent of cells expressing CD40L", "setting": "T cells; Dose 0.0001 μM", "value": 4.67, "unit": "%"}, {"measurement": "Percent of cells expressing CD40L", "setting": "T cells; Dose 0.001 μM", "value": 5.01, "unit": "%"}, {"measurement": "Percent of cells expressing CD40L", "setting": "T cells; Dose 0.01 μM", "value": 5, "unit": "%"}, {"measurement": "Percent of cells expressing CD40L", "setting": "T cells; Dose 0.1 μM", "value": 5.18, "unit": "%"}, {"measurement": "Percent of cells expressing CD40L", "setting": "T cells; Dose 1 μM", "value": 7.1, "unit": "%"}]}
{"molecule": "B1", "values": [{"measurement": "TMP-mediated regulation of CD40L expression", "setting": "T cells (CD4 and CD8)", "value": "TMP-mediated Regulation of CD40L expression was observed"}]}
